# Key:
# BI-2493 [1] = compound: T1, C[C@H]1CNCCN1c1nccc(-c2noc3c2CCC[C@@]32CCCc3sc(N)c(C#N)c32)n1 [BI-2493]; conditions: 5 days
# Method: (§1)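 PRISM pooled barcoded cancer cell line viability screen (Broad Institute) with BI-2493 at 8 doses in threefold dilutions from 0.00457 to 10 µmol/L, 5-day treatment; curves fitted per cell line. IC50 is undefined (placeholder) for resistant lines. AUC is capped at 1, and sensitivity is reported as 1 − AUC.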
# BI-2493 [2] = compound: T1, BI-2493; test: 1 - AUC of viability dose-response curve (sensitivity) (fraction); higher = more sensitive; conditions: 5 days
# Method: as §1
Test System,IC50 of cell viability (BI-2493 [1]) [µM],1 - AUC of viability dose-response curve (BI-2493 [2])
LN18_CENTRAL_NERVOUS_SYSTEM,6.48,0.0792
LN229_CENTRAL_NERVOUS_SYSTEM,8.48,0.0706
LN382_CENTRAL_NERVOUS_SYSTEM,8.95,0.0249
LN464_CENTRAL_NERVOUS_SYSTEM,4.83,0.0968
LNCAPCLONEFGC_PROSTATE,3.64,0.152
LNZ308_CENTRAL_NERVOUS_SYSTEM,7.52,0.142
LOUNH91_LUNG,> 10,0.189
LOVO_LARGE_INTESTINE,1.17,0.246
LOXIMVI_SKIN,8.63,0.0241
LPS141_SOFT_TISSUE,> 10,0.0281
LS180_LARGE_INTESTINE,1.08,0.244
LS513_LARGE_INTESTINE,0.175,0.494
LS1034_LARGE_INTESTINE,0.575,0.337
LS_AUTONOMIC_GANGLIA,3.67,0.125
LU99_LUNG,8.77,0.0228
LUDLU1_LUNG,4.54,0.143
LXF289_LUNG,8.04,0.103
M059K_CENTRAL_NERVOUS_SYSTEM,9.49,0.00953
MALME3M_SKIN,6.19,0.0805
MB1_THYROID,5.5,0.165
MC116_HAEMATOPOIETIC_AND_LYMPHOID_TISSUE,5.28,0.0718
MCC26_SKIN,> 10,0.0203
MCC142_SKIN,9.48,0.0347
MCF7_BREAST,8.66,0.0329

Test System,IC50 of cell viability (BI-2493 [1]) [µM],1 - AUC of viability dose-response curve (BI-2493 [2])
MDAMB175VII_BREAST,8.51,0.0449
MDAMB231_BREAST,7.4,0.0666
MDAMB361_BREAST,> 10,0.14
MDAMB435S_SKIN,4.3,0.0956
MDAMB436_BREAST,> 10,0.0282
MDAMB453_BREAST,5.47,0.115
MDAPCA2B_PROSTATE,> 10,0.118
MDST8_LARGE_INTESTINE,9.82,0.00776
MEG01_HAEMATOPOIETIC_AND_LYMPHOID_TISSUE,9.19,0.0154
MEL285_UVEA,6.23,0.145
MEL290_UVEA,> 10,0.105
MELHO_SKIN,7.85,0.131
MESSA_SOFT_TISSUE,3.73,0.17
MEWO_SKIN,9.6,0.0577
MFE280_ENDOMETRIUM,> 10,0.18
MFE296_ENDOMETRIUM,9.19,0.136
MFE319_ENDOMETRIUM,9.02,0.0267
MG63_BONE,9.09,0.0826
MHHES1_BONE,8.05,0.114
MHHNB11_AUTONOMIC_GANGLIA,4.36,0.177
MKN1_STOMACH,1.18,0.305
MKN7_STOMACH,8.55,0.161
MKN45_STOMACH,0.5,0.401
